{
  "source": "patent US12036226B2",
  "about": "“Methods of treating subjects having diabetes with chronic kidney disease” (Poxel SA, priority 2018, dated 2024)",
  "tested_on": "subjects with T2DM and CKD stage 3B or 4",
  "assay": "Phase 1b 28-day safety, tolerability and PK study in subjects with T2DM and CKD stage 3B or 4",
  "format": "in vivo",
  "excerpt": "An Open Label, Parallel Arm Study to Assess the Safety, Tolerability, and Pharmacokinetics of Imeglimin in Subjects with Type 2 Diabetes Mellitus (T2DM) and Moderate to Severe Chronic Kidney Disease (CKD)\nThis Phase 1b study is to assess the safety, tolerability and pharmacokinetics (PK) of imeglimin in subjects with T2DM and CKD stage 3B or 4.\nSubjects will be randomly allocated to receive one of three treatments or placebo.\nDoses which are below the minimally acceptable doses are acceptable if stable for 12 weeks prior to Screening as per prescribing information. […] Primary Outcome Measures […]\nSafety can be evaluated by assessment of clinical laboratory tests, physical examinations, vital signs measurements, and ECG readings at various time points during the study, and by the documentation of AEs.\nThe incidence of treatment-emergent adverse events (TEAE) will be summarized by treatment.\nPlasma lactate will be summarized descriptively by absolute value at each visit by treatment group, together with the corresponding changes from baseline.\nPharmacokinetics (PK) data can be descriptively summarized by treatment group. PK parameters will be determined using noncompartmental methods. […] Steady-state can be evaluated using the trough concentration data.",
  "key": {"[1]": {"conditions": "Imeglimin Total, CKD3b (n = 21)"}},
  "data": [
    {"smiles": "C[C@H]1N=C(N(C)C)N=C(N)N1", "note": "[imeglimin, (6R)—N^2, N^2,6-trimethyl-3,6-dihydro-1,3,5-triazine-2,4-diamine]", "values": [
      {"measurement": "Subjects with any TEAE by maximum severity: Grade 3 - Severe", "setting": "1500 mg QD, CKD3b (n = 17)", "result": "0 n, %"},
      {"measurement": "Subjects with any TEAE by maximum severity: Grade 4 - Life-threatening", "setting": "1500 mg QD, CKD3b (n = 17)", "result": "0 n, %"},
      {"measurement": "Subjects with any TEAE by maximum severity: Grade 5 - Death", "setting": "1500 mg QD, CKD3b (n = 17)", "result": "0 n, %"},
      {"measurement": "Subjects with any study drug related TEAE", "setting": "1500 mg QD, CKD3b (n = 17)", "result": "1 (14%) n, %"},
      {"measurement": "Subjects with any study drug related TEAE: Grade 1 - Mild", "setting": "1500 mg QD, CKD3b (n = 17)", "result": "1 (14%) n, %"},
      {"measurement": "Subjects with any study drug related TEAE: Grade 2 - Moderate", "setting": "1500 mg QD, CKD3b (n = 17)", "result": "0 n, %"},
      {"measurement": "Subjects with any study drug related TEAE: Grade 3 - Severe", "setting": "1500 mg QD, CKD3b (n = 17)", "result": "0 n, %"},
      {"measurement": "Subjects with any study drug related TEAE: Grade 4 - Life-threatening", "setting": "1500 mg QD, CKD3b (n = 17)", "result": "0 n, %"},
      {"measurement": "Subjects with any study drug related TEAE: Grade 5 - Death", "setting": "1500 mg QD, CKD3b (n = 17)", "result": "0 n, %"},
      {"measurement": "TEAE: Gastrointestinal disorders", "setting": "1500 mg QD, CKD3b (n = 17)", "result": "3 (43%) n, %"},
      {"measurement": "Subjects with any TEAE", "setting": "1500 mg QD, CKD4 (n = 5)", "result": "3 (60%) n, %"},
      {"measurement": "Subjects with any TEAE by maximum severity: Grade 1 - Mild", "setting": "1500 mg QD, CKD4 (n = 5)", "result": "3 (60%) n, %"},
      {"measurement": "Subjects with any TEAE by maximum severity: Grade 2 - Moderate", "setting": "1500 mg QD, CKD4 (n = 5)", "result": "0 n, %"},
      {"measurement": "Subjects with any TEAE by maximum severity: Grade 3 - Severe", "setting": "1500 mg QD, CKD4 (n = 5)", "result": "0 n, %"},
      {"measurement": "Subjects with any TEAE by maximum severity: Grade 4 - Life-threatening", "setting": "1500 mg QD, CKD4 (n = 5)", "result": "0 n, %"},
      {"measurement": "Subjects with any TEAE by maximum severity: Grade 5 - Death", "setting": "1500 mg QD, CKD4 (n = 5)", "result": "0 n, %"},
      {"measurement": "Subjects with any study drug related TEAE", "setting": "1500 mg QD, CKD4 (n = 5)", "result": "2 (40%) n, %"},
      {"measurement": "Subjects with any study drug related TEAE: Grade 1 - Mild", "setting": "1500 mg QD, CKD4 (n = 5)", "result": "2 (40%) n, %"},
      {"measurement": "Subjects with any study drug related TEAE: Grade 2 - Moderate", "setting": "1500 mg QD, CKD4 (n = 5)", "result": "0 n, %"},
      {"measurement": "Subjects with any study drug related TEAE: Grade 3 - Severe", "setting": "1500 mg QD, CKD4 (n = 5)", "result": "0 n, %"},
      {"measurement": "Subjects with any study drug related TEAE: Grade 4 - Life-threatening", "setting": "1500 mg QD, CKD4 (n = 5)", "result": "0 n, %"},
      {"measurement": "Subjects with any study drug related TEAE: Grade 5 - Death", "setting": "1500 mg QD, CKD4 (n = 5)", "result": "0 n, %"},
      {"measurement": "TEAE: Gastrointestinal disorders", "setting": "1500 mg QD, CKD4 (n = 5)", "result": "2 (40%) n, %"},
      {"measurement": "confirmed plasma lactate elevations", "setting": "CKD stages 3B and 4, 28 days", "result": "no cases of confirmed plasma lactate elevations"},
      {"measurement": "lactic acidosis", "setting": "CKD stages 3B and 4, 28 days", "result": "no lactic acidosis"},
      {"measurement": "serious adverse events", "setting": "CKD stages 3B and 4, 28 days", "result": "no incidence of serious adverse events"},
      {"measurement": "AUC by CKD stage", "setting": "Day 15, 1500 mg QD and 1000 mg BID treatment groups", "result": "increased in the T2DM with CKD stage 4 compared to CKD3B"},
      {"measurement": "Subjects with any TEAE", "setting": "[1]", "result": "10 (48%) n, %"},
      {"measurement": "Subjects with any TEAE by maximum severity: Grade 1 - Mild", "setting": "[1]", "result": "6 (29%) n, %"},
      {"measurement": "Subjects with any TEAE by maximum severity: Grade 2 - Moderate", "setting": "[1]", "result": "4 (19%) n, %"},
      {"measurement": "Subjects with any TEAE by maximum severity: Grade 3 - Severe", "setting": "[1]", "result": "0 n, %"},
      {"measurement": "Subjects with any TEAE by maximum severity: Grade 4 - Life-threatening", "setting": "[1]", "result": "0 n, %"},
      {"measurement": "Subjects with any TEAE by maximum severity: Grade 5 - Death", "setting": "[1]", "result": "0 n, %"},
      {"measurement": "Subjects with any study drug related TEAE", "setting": "[1]", "result": "3 (14%) n, %"},
      {"measurement": "Subjects with any study drug related TEAE: Grade 1 - Mild", "setting": "[1]", "result": "2 (10%) n, %"},
      {"measurement": "Subjects with any study drug related TEAE: Grade 2 - Moderate", "setting": "[1]", "result": "1 (5%) n, %"},
      {"measurement": "Subjects with any study drug related TEAE: Grade 3 - Severe", "setting": "[1]", "result": "0 n, %"},
      {"measurement": "Subjects with any study drug related TEAE: Grade 4 - Life-threatening", "setting": "[1]", "result": "0 n, %"},
      {"measurement": "Subjects with any study drug related TEAE: Grade 5 - Death", "setting": "[1]", "result": "0 n, %"},
      {"measurement": "TEAE: Gastrointestinal disorders", "setting": "[1]", "result": "5 (24%) n, %"},
      {"measurement": "Subjects with any TEAE", "setting": "Imeglimin Total, CKD4 (n = 17)", "result": "8 (47%) n, %"},
      {"measurement": "Subjects with any TEAE by maximum severity: Grade 1 - Mild", "setting": "Imeglimin Total, CKD4 (n = 17)", "result": "5 (29%) n, %"},
      {"measurement": "Subjects with any TEAE by maximum severity: Grade 2 - Moderate", "setting": "Imeglimin Total, CKD4 (n = 17)", "result": "3 (18%) n, %"},
      {"measurement": "Subjects with any TEAE by maximum severity: Grade 3 - Severe", "setting": "Imeglimin Total, CKD4 (n = 17)", "result": "0 n, %"},
      {"measurement": "Subjects with any TEAE by maximum severity: Grade 4 - Life-threatening", "setting": "Imeglimin Total, CKD4 (n = 17)", "result": "0 n, %"},
      {"measurement": "Subjects with any TEAE by maximum severity: Grade 5 - Death", "setting": "Imeglimin Total, CKD4 (n = 17)", "result": "0 n, %"},
      {"measurement": "Subjects with any study drug related TEAE", "setting": "Imeglimin Total, CKD4 (n = 17)", "result": "3 (18%) n, %"},
      {"measurement": "Subjects with any study drug related TEAE: Grade 1 - Mild", "setting": "Imeglimin Total, CKD4 (n = 17)", "result": "3 (18%) n, %"},
      {"measurement": "Subjects with any study drug related TEAE: Grade 2 - Moderate", "setting": "Imeglimin Total, CKD4 (n = 17)", "result": "0 n, %"},
      {"measurement": "Subjects with any study drug related TEAE: Grade 3 - Severe", "setting": "Imeglimin Total, CKD4 (n = 17)", "result": "0 n, %"},
      {"measurement": "Subjects with any study drug related TEAE: Grade 4 - Life-threatening", "setting": "Imeglimin Total, CKD4 (n = 17)", "result": "0 n, %"},
      {"measurement": "Subjects with any study drug related TEAE: Grade 5 - Death", "setting": "Imeglimin Total, CKD4 (n = 17)", "result": "0 n, %"},
      {"measurement": "TEAE: Gastrointestinal disorders", "setting": "Imeglimin Total, CKD4 (n = 17)", "result": "4 (24%) n, %"},
      {"measurement": "maximum observed concentrations (Cmax)", "setting": "after the morning dose on Day 15", "result": "increased in a dose-dependent manner"},
      {"measurement": "tolerability", "setting": "as CKD severity increased (up to stage 4)", "result": "well tolerated"}
    ]}
  ]
}
